Literature values in US20240023554A1, “MICROPARTICLE COMPOSITIONS COMPRISING TRIFLUDIMOXAZIN” (BASF SE, priority 2020, published 2024).

Settings: background statement

solubility in water: only sparingly soluble in water
Compound: C#CCN1C(=O)C(F)(F)Oc2cc(F)c(-n3c(=O)n(C)c(=S)n(C)c3=O)cc21 [Trifludimoxazin, 1,5-dimethyl-6-thioxo-3-[2,2,7-trifluoro-3-oxo-4-(prop-2-yn-1-yl)-3,4-dihydro-2H-1,4-benzoxazin-6-yl]-1,3,5-triazinane-2,4-dione]
